{"source": "patent US11447533B2", "about": "“Antimicrobial and anticancer peptides and conjugates and compositions, methods, articles and kits relating thereto” (George Mason Research Foundation, Inc., priority 2018, dated 2022)", "key": {"[1]": {"test_system": "E. coli ML35p inner membrane", "experiment": "Inner membrane disruption (β-galactosidase leakage, ONPG)", "assay_type": "cell-based, Escherichia coli", "method": "Interactions with Bacterial Membranes. Interaction of the peptides with bacterial membranes in different phosphate buffers were evaluated using E. coli ML35p, constructed in our laboratory. At first, competent cells of E. coli ML35 were produced by conventional competent cell preparation method, then transformed with pBR322 plasmid. Transformed colonies were selected after growing on Luria-agar containing 50 μg/mL ampicillin. A single transformed colony was grown in presence of ampicillin first in Luria broth and then in MHBII and stored as 20% glycerol stock at −80° C. This frozen stock, on the day of the experiment, was thawed and grown in MHBII containing ampicillin up to OD600 nm=0.8-0.9, washed with PBS and then suspended in the respective buffer up to the required OD600 nm for use.\nMembrane Disruptions. The outer and the inner membrane disruptions by the peptides were evaluated by incubating bacterial suspension with peptides and then measuring the activity of enzymes leaked out of the cells. 100 μL of 10× concentration of peptide in water was incubated with 900 μL bacterial suspension (OD600 nm˜0.1) in respective buffer for 3 hours at room temperature with gentle rotation. […]\nThe inner membrane disruption was tested by using the activity of β-galactosidase present in the […] of E. coli ML35p, which lacks lactose-permease. Peptides when disrupt the inner membrane enough to cause β-galactosidase to come out, the degree of disruption can be measured by the virtue of the kinetics of the enzyme and using a substrate called ortho-Nitrophenyl-β-galactoside (ONPG). β-galactosidase mediated hydrolyzed product of ONPG has an absorbance λmax=420 nm. Supernatant collected from the incubation of peptide with bacteria was added with ONPG solution in DPBS and incubated at 35° C. and continuous absorbance readings. The slope of the linear section of the absorbance curve (absorbance vs time), was used as a measure of membrane disruption and the % Disruption was calculated as: Equation 8: […]"}, "[2]": {"test_system": "primary lung epithelium cells", "experiment": "Cytotoxicity (Alamar blue)", "assay_type": "cell-based, human", "conditions": "~16 hours (overnight), reduced serum conditions", "method": "FIGS. 11A-11B are graphs showing cytotoxicity against primary lung epithelium cells in serum-free condition. Cells were seeded in complete growth medium (Minimal essential medium supplemented with 10% fetal bovine serum) at near-confluence into a 96-well plate and allowed to settle for 24-hours. Media was then replaced to OptiMEM I reduced serum medium containing peptide or vehicle alone (DBPS) and cells were incubated overnight (16 hours). A resazurin based dye (Alamar blue) was added directly to media and conversion of resazurin to resorufin was evaluated following two hours. % Survival represents the proportion of viable cells in peptide treated cells relative to cells treated with vehicle alone. […] Each peptide was tested in triplicate.\nFIG. 12 is a graph showing comparison of toxicities against Lung Primary Epithelial cells and Lung Cancerous Epithelial Cells, derived from H358 cell-line. […] Each peptide was tested in triplicate.\nCytotoxicity. Cells were seeded in complete growth medium (Minimal Essential Medium, MEMα, supplemented with 10% Fetal Bovine Serum) into a culture-treated 96-well plate at a density of 25000 cells per well. After 24 hours, culture media was aspirated and replaced with media containing the selected peptide. No-serum experiments were conducted in Opti-MEM I reduced serum media (ThermoFisher, 31985062) and 10% serum experiments were performed in complete growth medium. In all cases, DBPS was used as a vehicle only control and buffer to serially dilute the peptides. After exposure to the peptides or vehicle-alone for the defined period, Alamar blue dye (resazurin) was added directly to the media and allowed to incubate for two hours. Following incubation, A570/A600 measurements were made to calculate reduction of resazurin dye to resorufin. A ratio of reduction in treated versus untreated cells was calculated in order to determine overall cell viability. The human cells were always maintained in a 37° C. incubator under 5% CO2."}}, "data": [{"sequence": "KRFKKFFKKLK (SEQ ID NO: 2) [ATRA1, first 11 residues of NA-CATH]", "values": [{"measurement": "inner membrane disruption relative to HCMAB", "setting": "[1]; 10 mM phosphate buffer", "value": "highest"}, {"measurement": "inner membrane disruption relative to HCMAB", "setting": "[1]; DPBS, HCMAB = 100%", "value": "below 10%"}]}, {"sequence": "RRWKRFFKRWK (SEQ ID NO: 15) [ATRA1-R3W2]", "values": [{"measurement": "inner membrane disruption relative to HCMAB", "setting": "[1]; DPBS, HCMAB = 100%", "value": "highest degree of inner membrane disruption"}]}, {"sequence": "RRWKRFFKRWKGGVIGVTFPF (SEQ ID NO: 50) [ATRA1-R3W2-HYD, ATRA1-R3W2 with hydrophobic tail of NA-CATH joined by -GG-]", "values": [{"measurement": "concentration decreasing resazurin reduction by 50% (LD50)", "setting": "[2]", "value": "~50", "unit": "µM"}, {"measurement": "concentration over which significant toxicity was observed", "setting": "[2]", "value": "~50", "unit": "µM"}]}]}
